“And” between values parts separate entries of the source, which are not always exact repeats. Equal entries are not always repeated.
How the values were obtained:
[1] = tested on: pStat5, Hes1, p-Erk, p-p38, p-S6, p-Akt in Lmo2^Tg DN3a cells; assay: Growth factor-mediated signalling effectors in co-cultured Lmo2^Tg DN3a cells (flow cytometry); assay type: cell-based, mouse
Procedure: (§1) Phosphoflow analysis was performed as previously described. Briefly, 2 × 10^6 cells stained for surface markers were subsequently resuspended into PBS 1× + 4% v/v paraformaldehyde and incubated for 10 min at 4 °C for fixation. Fixed cells were washed twice using PBS 1×, then resuspended in pre-chilled at −20 °C Perm Buffer III (BD Pharmingen) and incubated 30 min at 4 °C for permeabilization. Cells were washed twice using PBS 1× and incubated overnight at 4 °C in PBS 1× + 2% v/v fetal calf serum (FCS) with Cell Signalling purified antibodies (Genesearch Pty Ltd, Arundel QLD, Australia) against pSTAT5 (Tyr694; #9359), phospho-p38 MAPK (Thr180/Tyr182; #4511), phospho-p44/42 (Erk1/2; #9102), phospho-S6 (Ser235/236; #4856) and phospho-Akt (Ser473; #9271) or isotype control. For intracellular HES1 detection, cells stained for surface markers were subsequently fixed and permeabilized using the BD Cytofix/Cytoperm^TM Kit and incubated overnight at 4 °C in PBS 1× + 2% v/v FCS with a purified antibody against HES1 (D6PU; #11988, Cell Signalling) or isotype control. After staining with primary antibodies for phosphoflow or intracellular detection, cells were incubated in permeabilization buffer with donkey Alexa Fluor 488-conjugated anti-rabbit secondary antibody (A-21206, lot #1910751, Molecular Probes, Invitrogen) or goat Alexa Fluor 546-conjugated anti-rabbit secondary antibody (A-11035, lot #1904467, Molecular Probes, Invitrogen) for 1 h on ice, and washed twice in PBS 1×. Fluorescence-activated cell sorting (FACS) analysis was performed using LSRII and LSR Fortessa cytometers, following the gating strategies described in Supplementary Fig. 11. Cell sorting was performed with a FACSAria or BD Influx.

DN3a thymocytes = assay: Relative viability and LC50 on DN3a thymocytes of WT, Lmo2^Tg, Lmo2^Tg;STAT5-CA^Tg and Lmo2^Tg;N1-ICD^Tg mice, 48 h
Procedure: Pre-leukemic and leukemic thymocytes were purified by flow cytometry and co-cultured on GFP-positive OP9 and OP9-DL1 stromal cell lines, as described previously. Thymocytes were co-cultured in reconstituted alpha-MEM medium (#12318, Gibco, Grand Island NY, USA) supplemented with 20% FCS (#12318), HEPES 10 mM (#15630-080), sodium pyruvate 1 mM (#11360-070), β-mercaptoethanol 55 μM (#21985-023), Glutamax 2 mM (#15750-060), 1% Penicillin/Streptomycin (#15140-122), 5 ng/mL rmFLT-3 ligand (#250-31 L, Pepro Tech), 5 ng/mL rmIL-7 (#217-17, Pepro Tech) and 25 ng/mL rmSCF (#250-03, Pepro Tech). After 48 h of co-culture, thymocytes were counted and analysed by FACS. […]
viability of wild-type (WT), Lmo2 Tg, Lmo2Tg;STAT5-CA Tg and Lmo2Tg;N1-ICD Tg DN3a thymocytes […]
normalized to cells treated with vehicle (%DMSO). Mean ± SEM of n=4 biological replicates. b, […]
thymocytes from 6-week old wild-type (WT), Lmo2 Tg, Lmo2Tg;STAT5-CATg and Lmo2Tg ;N1-ICD Tg mice. Mean ± SD of n=4 biological replicates are shown. 2-way ANOVA with Tukey’s correction test; […]
(1 picture or pasted object on this page, not shown here)
*P<0.05, *** P<0.001 compared to WT; #P<0.05, ##P<0.01, ###P<0.001 compared to L mo2Tg. c, Levels of pStat5 (left) after stimulation with IL-7 , as well as Hes1 expression (right) after co-culture on OP9- […]
(0.2 µM), Ruxolitinib (0.2 µM) and DAPT (0.1 µM). Unstimulated cells were used as negative controls (dashed line). Student’s t -test, ** P<0.01, *** P<0.001 compared to unstimulated cells. MFI ± SEM, 1-way ANOVA with Tukey’s correction test; **P<0.01, *** P<0.001 compared to vehicle. d, Clonogenic assay of normal murine hematopoietic stem and progenitor cells (HSPCs) cultured in the presence […]
± SD, Student’s t -test ( n=4) **P<0.01 compared to vehicle. e, Relative viability of wild-type (WT), […]
2 (0.2 µM), Ruxolitinib (0.2 µM) and DAPT (0.1 µM) for 48 hours. Viability was normalized to cells treated with vehicle (%DMSO, which was reported as 100). Mean ± SEM, 2-way ANOVA with Tukey’s correction test, **P<0.01, *** P<0.001 compared to vehicle.

[2] = tested on: pStat5 in leukemic DN3a cells from primary Lmo2^Tg T-ALL; assay: IL-7-induced pStat5 in leukemic DN3a cells from primary Lmo2^Tg T-ALL; assay type: cell-based, mouse
Procedure: as §1
For in vitro IL-7 stimulation assays, cells were starved in serum-free DMEM at 37 °C, then incubated with either vehicle or Dynole 34-2 or Ruxolitinib (INCB018424; #S1378, Selleckchem), or DAPT (GSI-IX; #S2215, Selleckchem) resuspended in DMSO for 1 h. Thymocytes were subsequently stimulated with 25 ng/mL IL-7 at 37 °C for 20 min and washed twice using cold PBS 1×. Cells were incubated with 25 ng/mL Rat IgG (Sigma-Aldrich Pty Ltd, Castle Hill NSW, Australia) and with a PE-conjugated antibody for detection of IL-7R (CD127) for 1 h on ice, as described in the FACS analysis section. PE-conjugated isotype was used as negative control. Cells were washed twice, fixed and phosphoflow analysis performed as described in the FACS analysis section. The analysis was performed in triplicate and the mean fluorescence intensity (MFI) observed without stimulation was reported as 100%.

[3] = Supplementary Figure 2c, unstimulated and vehicle controls in the same table
[4] = leukemic DN3a cells of TALL249, IL-7 stimulation
[5] = leukemic DN3a cells of TALL257, IL-7 stimulation
[6] = leukemic DN3a cells of TALL273, IL-7 stimulation
[7] = leukemic DN3a cells of TALL582, IL-7 stimulation
[8] = leukemic DN3a cells of TALL588, IL-7 stimulation
[9] = leukemic DN3a cells of TALL742, IL-7 stimulation
[10] = Lmo2^Tg DN3a cells co-cultured on OP9-DL1 with cytokines, individual animals

## C[C@H](NC(=O)Cc1cc(F)cc(F)c1)C(=O)N[C@H](C(=O)OC(C)(C)C)c1ccccc1 [DAPT, N-[N-(3,5-Difluorophenacetyl)-L-alanyl]-S-phenylglycine t-butyl ester]
[1]; [3]
  Hes1 (MFI): 1314 MFI and 1222 MFI and 1307 MFI
DN3a thymocytes; LC50 comparison, 48 h
  fold resistance of Lmo2^Tg;N1-ICD^Tg DN3a cells vs Lmo2^Tg thymocytes: 9 fold
DN3a thymocytes; Lmo2Tg
  Survival (% DMSO): 17.19 % DMSO and 25.07 % DMSO and 13.99 % DMSO
DN3a thymocytes; Lmo2Tg DN3a thymocytes, dose 0.02 mM (so in the source)
  Relative % viable cells: 79.43% and 55.29% and 67.53%
DN3a thymocytes; Lmo2Tg DN3a thymocytes, dose 0.1 mM (so in the source)
  Relative % viable cells: 25.07% and 13.99% and 17.19%
DN3a thymocytes; Lmo2Tg DN3a thymocytes, dose 0.5 mM (so in the source)
  Relative % viable cells: 5.42% and 10.32% and 11.23%
DN3a thymocytes; Lmo2Tg DN3a thymocytes, dose 2.5 mM (so in the source)
  Relative % viable cells: 5.22% and 9.91% and 8.68%
DN3a thymocytes; Lmo2Tg DN3a thymocytes, dose 12.5 mM (so in the source)
  Relative % viable cells: 5.76% and 9.27% and 6.48%
DN3a thymocytes; Lmo2Tg;Notch1Tg
  Survival (% DMSO): 55.35 % DMSO and 68.13 % DMSO and 61.12 % DMSO and 65.99 % DMSO
DN3a thymocytes; Lmo2Tg;Notch1Tg DN3a thymocytes, dose 0.02 mM (so in the source)
  Relative % viable cells: 68.73% and 83.56% and 62.24% and 87.12%
DN3a thymocytes; Lmo2Tg;Notch1Tg DN3a thymocytes, dose 0.1 mM (so in the source)
  Relative % viable cells: 55.35% and 68.13% and 61.12% and 65.99%
DN3a thymocytes; Lmo2Tg;Notch1Tg DN3a thymocytes, dose 0.5 mM (so in the source)
  Relative % viable cells: 52.22% and 56.33% and 58%
DN3a thymocytes; Lmo2Tg;STAT5-CATg
  Survival (% DMSO): 52.45 % DMSO and 51.11 % DMSO and 34.78 % DMSO
DN3a thymocytes; Lmo2Tg;STAT5-CATg DN3a thymocytes, dose 0.02 mM (so in the source)
  Relative % viable cells: 76.45% and 84.74% and 59.85%
DN3a thymocytes; Lmo2Tg;STAT5-CATg DN3a thymocytes, dose 0.1 mM (so in the source)
  Relative % viable cells: 52.45% and 51.11% and 34.78%
DN3a thymocytes; Lmo2Tg;STAT5-CATg DN3a thymocytes, dose 0.5 mM (so in the source)
  Relative % viable cells: 38.67% and 42.63% and 42.16%
DN3a thymocytes; Lmo2Tg;STAT5-CATg DN3a thymocytes, dose 2.5 mM (so in the source)
  Relative % viable cells: 27.14% and 38.85% and 21.86%
DN3a thymocytes; Lmo2Tg;STAT5-CATg DN3a thymocytes, dose 12.5 mM (so in the source)
  Relative % viable cells: 19.43% and 16.58% and 21.18%
[2]; [4]
  pStat5 (MFI): 15113 MFI
  pStat5, FOLD over unstimulated: 3.80 fold
[2]; [5]
  pStat5 (MFI): 2628 MFI
  pStat5, FOLD over unstimulated: 1.69 fold
[2]; [6]
  pStat5 (MFI): 2744 MFI
  pStat5, FOLD over unstimulated: 1.22 fold
[2]; [7]
  pStat5 (MFI): 34040 MFI
  pStat5, FOLD over unstimulated: 0.89 fold
[2]; [8]
  pStat5 (MFI): 3980 MFI
  pStat5, FOLD over unstimulated: 1.55 fold
[2]; [9]
  pStat5 (MFI): 7661 MFI
  pStat5, FOLD over unstimulated: 1.35 fold

## CCCCCCCCNC(=O)C(C#N)=Cc1cn(CCCN(C)C)c2ccccc12 [Dynole 34-2, 2-Cyano-N-octyl-3-(1-(3-dimethylaminopropyl)-1H-indol-3-yl)-acrylamide]
[1]; [10]
  Hes1 (MFI): 5911 MFI and 6176 MFI and 5994 MFI and 6141 MFI
  p-Akt (MFI): 1455 MFI and 2044 MFI and 1472 MFI and 1916 MFI
  p-Erk (MFI): 2822 MFI and 3661 MFI and 3448 MFI and 2830 MFI
  p-S6 (MFI): 4904 MFI and 4987 MFI and 5062 MFI and 5235 MFI
  p-p38 (MFI): 4351 MFI and 3539 MFI and 4397 MFI and 3757 MFI
  pStat5 (MFI): 2745 MFI and 2767 MFI and 2938 MFI and 3210 MFI
[1]; [3]
  Hes1 (MFI): 1218 MFI and 1199 MFI and 1165 MFI
DN3a thymocytes; LC50 comparison, 48 h
  relative resistance conferred by mutations downstream of DDE (STAT5-CA^Tg, N1-ICD^Tg) vs Lmo2^Tg DN3a: 3.4 fold
DN3a thymocytes; Lmo2Tg DN3a thymocytes, dose 0.04 mM (so in the source)
  Relative % viable cells: 53.38% and 35.26% and 57.31% and 29.03%
DN3a thymocytes; Lmo2Tg DN3a thymocytes, dose 25 mM (so in the source)
  Relative % viable cells: 0%
DN3a thymocytes; Lmo2Tg;Notch1Tg DN3a thymocytes, dose 1 mM (so in the source)
  Relative % viable cells: 27.05% and 30.53% and 26.36%
DN3a thymocytes; Lmo2Tg;STAT5-CATg DN3a thymocytes, dose 0.04 mM (so in the source)
  Relative % viable cells: 60% and 110.87% and 62.94% and 65.19%
DN3a thymocytes; Lmo2Tg;STAT5-CATg DN3a thymocytes, dose 0.2 mM (so in the source)
  Relative % viable cells: 40.03% and 50.05% and 55.36%
DN3a thymocytes; Lmo2Tg;STAT5-CATg DN3a thymocytes, dose 25 mM (so in the source)
  Relative % viable cells: 0% and 5.23% and 8.65%
DN3a thymocytes; Mus musculus, Thymocyte, read-out: Relative % viable cells, Lmo2Tg;STAT5-CATg DN3a thymocytes, dose 0.2 mM (so in the source)
  viability at 200 µM: 37.5%
DN3a thymocytes; WT DN3a thymocytes, dose 0.04 mM (so in the source)
  Relative % viable cells: 81.18% and 50% and 68.95% and 71.06% and 67.17%
DN3a thymocytes; WT DN3a thymocytes, dose 5 mM (so in the source)
  Relative % viable cells: 5.59% and 1.77% and 8.44% and 6.33% and 6.38%
DN3a thymocytes; WT DN3a thymocytes, dose 25 mM (so in the source)
  Relative % viable cells: 0% and 8.83%
DN3a thymocytes; WT vs Lmo2^Tg DN3a, result in words
  sensitivity of wild-type (WT) DN3a thymocytes relative to pre-LSCs: fivefold less sensitive
[2]; [4]
  pStat5 (MFI): 3097 MFI
  pStat5, FOLD over unstimulated: 0.78 fold
[2]; [5]
  pStat5 (MFI): 1676 MFI
  pStat5, FOLD over unstimulated: 1.08 fold
[2]; [6]
  pStat5 (MFI): 2251 MFI
  pStat5, FOLD over unstimulated: 1.00 fold
[2]; [7]
  pStat5 (MFI): 15189 MFI
  pStat5, FOLD over unstimulated: 0.40 fold
[2]; [8]
  pStat5 (MFI): 2662 MFI
  pStat5, FOLD over unstimulated: 1.03 fold
[2]; [9]
  pStat5 (MFI): 5864 MFI
  pStat5, FOLD over unstimulated: 1.03 fold

From article PMC7719179, “Small molecule inhibition of Dynamin-dependent endocytosis targets multiple niche signals and impairs leukemia stem cells” (Nature Communications, 2020)
